Data reported in patent publication US20060062747A1, “Use of sweetener acids for the microbiological stabilization of foodstuffs, cosmetic products, consumer goods and pharmaceutical productions” (Nutrinova Nutrition Specialties & Food Ingredients GmbH, priority 2002, published 2006).

Key:
[1] = Sensory testing of sweetener acids in foods and drinks; details: in vivo
Text: Sweetener acids are the acids of known salts of high-intensity sweeteners such as acesulfame-K (=potassium salt of acesulfamic acid), sodium cyclamate or sodium saccharin. Sweetener acids which can be used are, for example, saccharin acid, cyclamic acid, glycyrrhicic acid and acesulfamic acid and also mixtures of two or more of these acids. Inventively preferred sweetener acids are acesulfamic acid, cyclamic acid and saccharin acid, and also mixtures of two or all three sweetener acids. On account of their low pKa of 1.5 to 2.5, the sweetener acids have never previously been considered as […]. […] The acid profile is balanced.
At the same time, the sweetener acids have, on a molar basis, a sweetening power equivalent to the corresponding sweetener salt. In addition to the described acid taste and sweet taste, no significant off-taste and aftertaste occur.

[2] = pH of the test solutions and drinks
[3] = system: testers; test: Pairwise comparison test for identical acid taste
Text: Pairwise comparison test with the question: Which sample is the more acid: (forced choice, n=13)
Pairwise comparison test with the question: Which sample is the more acid? (forced choice, n=15)

| Compound | time-intensity profile of the acid taste [1] | pH ([2]; Example 1, identical acid taste solutions (Table 3)) | pH ([2]; Example 4, identical acid taste solutions (Table 9)) | citric acid concentration of identical acid taste ([3]; Example 1, vs 203 mg/l acesulfamic acid, citric acid + 250 mg/l acesulfame-K, n=13) [mg/L] | acetic acid concentration of identical acid taste ([3]; Example 4, vs 203 mg/l acesulfamic acid, acetic acid + 250 mg/l acesulfame-K, n=14) [mg/L] | pH ([2]; Example 3, identical acid taste solutions (Table 7)) | citric acid concentration of identical acid taste ([3]; Example 3, vs 200 mg/l saccharin acid, citric acid + 225 mg/l saccharin sodium, n=15) [mg/L] |
| --- | --- | --- | --- | --- | --- | --- | --- |
| CC1=CC(=O)NS(=O)(=O)O1 [Acesulfamic acid] | comparable to that of malic acid | 3.07 | 3.07 | 137 | 190 |  |  |
| O=C1NS(=O)(=O)c2ccccc21 [Saccharin acid, o-benzosulfimide] |  |  |  |  |  | 3.05 | 100 |
